This is an account of results in patent publication US11571423B2, “Small molecule modulators of human sting” (Curadev Pharma Limited, priority 2017, dated 2023).

Molecules are shown by their SMILES. Bounds are passed on as bounds.

For this experiment, the target named is hSTING(R232) (Homo sapiens, UniProt Q86WV6, H232R). Description: Luciferase reporter assay in HEK293T-hSTING-Luciferase cells, R232 (wild type) human STING. In kind it is cell-based. Particulars: 20 hr stimulation, read-out: R232 human activity (EC50 range). The procedure, abridged: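 Clonal HEK293T cells stably expressing STING from a pUNO-1 plasmid plus an ISRE/ISG54-driven secreted luciferase reporter; 5×10^5 cells stimulated with compound for 20 hr. Supernatant luciferase read by luminescence, giving fold-induction over baseline and EC50.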
Sequence of hSTING(R232) (Q86WV6 whole entry H232R): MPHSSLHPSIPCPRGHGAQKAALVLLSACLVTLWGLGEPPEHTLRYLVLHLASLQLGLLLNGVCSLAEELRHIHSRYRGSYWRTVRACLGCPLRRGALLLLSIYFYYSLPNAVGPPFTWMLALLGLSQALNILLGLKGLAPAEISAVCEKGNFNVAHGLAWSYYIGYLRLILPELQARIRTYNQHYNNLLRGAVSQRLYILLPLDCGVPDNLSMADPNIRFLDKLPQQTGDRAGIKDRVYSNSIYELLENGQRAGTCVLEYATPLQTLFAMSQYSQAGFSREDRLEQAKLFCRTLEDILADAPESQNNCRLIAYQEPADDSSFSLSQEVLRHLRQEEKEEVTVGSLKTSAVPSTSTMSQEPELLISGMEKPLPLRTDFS
For `CN1Cc2ncc(C(=O)NCc3c(F)cc(F)cc3F)cc2N(Cc2c(F)cccc2Cl)C1=O` [Example 71, 1-(2-chloro-6-fluorobenzyl)-3-methyl-2-oxo-N-(2,4,6-trifluorobenzyl)-1,2,3,4-tetrahydropyrido[3,2-d]pyrimidine-7-carboxamide], the EC50 is 1000 to 10000 nM.
For the molecule `CN1Cc2ncc(C(=O)NCc3c(F)cc(F)cc3F)cc2N(Cc2cc(F)cc(F)c2)C1=O` [Example 72, 1-(3,5-difluorobenzyl)-3-methyl-2-oxo-N-(2,4,6-trifluorobenzyl)-1,2,3,4-tetrahydropyrido[3,2-d]pyrimidine-7-carboxamide], the EC50 lay within 1000 to 10000 nM.
As for `CN1Cc2ncc(C(=O)NCc3cc4ccccc4o3)cc2N(Cc2c(F)cccc2Cl)C1=O` [Example 73, N-(benzofuran-2-ylmethyl)-1-(2-chloro-6-fluorobenzyl)-3-methyl-2-oxo-1,2,3,4-tetrahydropyrido[3,2-d]pyrimidine-7-carboxamide], the EC50 is more than 10000 nM.
For the molecule `C[C@H]1c2ccc(C(=O)NCc3c(F)cc(F)cc3F)cc2N(Cc2c(OCCOP(=O)(O)O)ccc(F)c2F)C(=O)N1C` [Example 91, (S)-2-(2-((3,4-dimethyl-2-oxo-7-((2,4,6-trifluorobenzyl)carbamoyl)-3,4-dihydroquinazolin-1(2H)-yl)methyl)-3,4-difluorophenoxy)ethyl dihydrogen phosphate], the EC50 is less than 1000 nM.
As to `C[C@H]1c2ccc(C(=O)NCc3c(F)cc(F)cc3F)cc2N(Cc2ccc(OP(=O)(O)O)cc2F)C(=O)N1C` [Example 92, (S)-4-((3,4-dimethyl-2-oxo-7-((2,4,6-trifluorobenzyl)carbamoyl)-3,4-dihydroquinazolin-1(2H)-yl)methyl)-3-fluorophenyl dihydrogen phosphate], the EC50 is less than 1000 nM.
For the molecule `C[C@H]1c2ccc(C(=O)NCc3ccc(F)cc3OP(=O)(O)O)cc2N(Cc2c(F)cccc2Cl)C(=O)N1C` [Example 93, (S)-2-((1-(2-chloro-6-fluorobenzyl)-3,4-dimethyl-2-oxo-1,2,3,4-tetrahydroquinazoline-7-carboxamido)methyl)-5-fluorophenyl dihydrogen phosphate], the concentration giving a half-maximal response (EC50) is less than 1000 nM.
As to `C[C@H]1c2ccc(C(=O)NCc3c(F)cc(F)cc3F)cc2N(Cc2c(OP(=O)(O)O)ccc(F)c2F)C(=O)N1C` [Example 99, (S)-2-((3,4-dimethyl-2-oxo-7-((2,4,6-trifluorobenzyl)carbamoyl)-3,4-dihydroquinazolin-1(2H)-yl)methyl)-3,4-difluorophenyl dihydrogen phosphate], the EC50 was in the range of 1000 to 10000 nM.
The figure for `C[C@H]1c2ccc(C(=O)NCc3c(F)cc(F)cc3F)cc2N(Cc2c(F)ccc(OCCCOP(=O)(O)O)c2F)C(=O)N1C` [Example 104, (S)-3-(3-((3,4-dimethyl-2-oxo-7-((2,4,6-trifluorobenzyl)carbamoyl)-3,4-dihydroquinazolin-1(2H)-yl)methyl)-2,4-difluorophenoxy)propyl dihydrogen phosphate] is less than 1000 nM.
Take `C[C@H]1c2ccc(C(=O)NCc3c(F)cc(F)cc3F)cc2N(Cc2c(F)ccc(OC(=O)N(C)CCC(=O)OCc3ccccc3)c2Cl)C(=O)N1C` [Example 140, (S)-Benzyl 3-((2-chloro-3-((3,4-dimethyl-2-oxo-7-((2,4,6-trifluorobenzyl)carbamoyl)-3,4-dihydroquinazolin-1(2H)-yl)methyl)-4-fluorophenoxy)carbonyl)(methylamino)propanoate]: the EC50 was more than 10000 nM.
Consider `C[C@H]1c2ccc(C(=O)NCc3c(F)cc(F)cc3F)cc2N(Cc2c(F)ccc(C(=O)O)c2F)C(=O)N1C` [Example 142, (S)-3-((3,4-Dimethyl-2-oxo-7-((2,4,6-trifluorobenzyl)carbamoyl)-3,4-dihydroquinazolin-1(2H)-yl)methyl)-2,4-difluorobenzoic acid], for which the concentration for a half-maximal effect (EC50) is more than 10000 nM.
For `C[C@H]1c2ccc(C(=O)NCc3c(F)cc(F)cc3F)cc2N(Cc2c(F)ccc(C(=O)NCCO)c2F)C(=O)N1C` [Example 143], the EC50 is less than 1000 nM.
For the molecule `C[C@H]1c2ccc(C(=O)NCc3c(F)cc(O)cc3F)cc2N(Cc2c(F)cc(O)cc2F)C(=O)N1C` [Example 150, (S)—N,1-bis(2,6-Difluoro-4-hydroxybenzyl)-3,4-dimethyl-2-oxo-1,2,3,4-tetrahydroquinazoline-7-carboxamide], the EC50 was less than 1000 nM.
As to `C[C@H]1c2ccc(C(=O)N(CCO)Cc3c(F)cc(F)cc3F)cc2N(Cc2c(F)cccc2Cl)C(=O)N1C` [Example 151, (S)-1-(2-Chloro-6-fluorobenzyl)-N-(2-hydroxyethyl)-3,4-dimethyl-2-oxo-N-(2,4,6-trifluorobenzyl)-1,2,3,4-tetrahydroquinazoline-7-carboxamide], the EC50 is more than 10000 nM.
Take `CC1c2ccc(C(=O)NCc3c(F)cc(F)cc3F)cc2N(Cc2cc(F)cc(F)c2)C(=O)N1C` (centres unmarked) [Example 152, 1-(3,5-difluorobenzyl)-3,4-dimethyl-2-oxo-N-(2,4,6-trifluorobenzyl)-1,2,3,4-tetrahydroquinazoline-7-carboxamide]: the EC50 was less than 1000 nM.
With `COc1cccc(F)c1CN1C(=O)N(C)C(C)c2ccc(C(=O)NCc3c(F)cc(F)cc3F)cc21` (centres unmarked) [Example 155, 1-(2-fluoro-6-methoxybenzyl)-3,4-dimethyl-2-oxo-N-(2,4,6-trifluorobenzyl)-1,2,3,4-tetrahydroquinazoline-7-carboxamide], the EC50 is 1000 to 10000 nM.
With `CC1c2ccc(C(=O)NCc3c(F)cc(F)cc3F)cc2N(Cc2cc(F)cc(F)c2)C(=O)N1C` (centres unmarked) [Example 156, 1-(3,5-difluorobenzyl)-3,4-dimethyl-2-oxo-N-(2,4,6-trifluorobenzyl)-1,2,3,4-tetrahydroquinazoline-7-carboxamide], the EC50 was less than 1000 nM.
The figure for `CC1c2ccc(C(=O)NCc3c(F)cc(F)cc3F)cc2N(Cc2cc(F)cc(F)c2)C(=O)N1C` (centres unmarked) [Example 157, 1-(3,5-difluorobenzyl)-3,4-dimethyl-2-oxo-N-(2,4,6-trifluorobenzyl)-1,2,3,4-tetrahydroquinazoline-7-carboxamide] is less than 1000 nM; for `CC1c2ccc(C(=O)NCc3c(F)cc(F)cc3F)cc2N(Cc2c(F)cccc2Br)C(=O)N1C` (centres unmarked) [Example 158, 1-(2-bromo-6-fluorobenzyl)-3,4-dimethyl-2-oxo-N-(2,4,6-trifluorobenzyl)-1,2,3,4-tetrahydroquinazoline-7-carboxamide] it is less than 1000 nM.
As for `CC1c2ccc(C(=O)NCc3c(F)cc(F)cc3F)cc2N(Cc2c(F)cccc2Br)C(=O)N1C` (centres unmarked) [Example 159, 1-(2-bromo-6-fluorobenzyl)-3,4-dimethyl-2-oxo-N-(2,4,6-trifluorobenzyl)-1,2,3,4-tetrahydroquinazoline-7-carboxamide], the EC50 is less than 1000 nM.
As to `CC1c2ccc(C(=O)NCc3c(F)cc(F)cc3F)cc2N(Cc2c(O)cccc2F)C(=O)N1C` (centres unmarked) [Example 160, 1-(2-fluoro-6-hydroxybenzyl)-3,4-dimethyl-2-oxo-N-(2,4,6-trifluorobenzyl)-1,2,3,4-tetrahydroquinazoline-7-carboxamide], the EC50 is less than 1000 nM.
For the molecule `Cc1cccc(F)c1CN1C(=O)N(C)C(C)c2ccc(C(=O)NCc3c(F)cc(F)cc3F)cc21` (centres unmarked) [Example 161, 1-(2-fluoro-6-methylbenzyl)-3,4-dimethyl-2-oxo-N-(2,4,6-trifluorobenzyl)-1,2,3,4-tetrahydroquinazoline-7-carboxamide], the EC50 lay in the range of 1000 to 10000 nM.
To `Cc1ccc(Cl)c(CN2C(=O)N(C)C(C)c3ccc(C(=O)NCc4c(F)cc(F)cc4F)cc32)c1F` (centres unmarked) [Example 163, 1-(6-chloro-2-fluoro-3-methylbenzyl)-3,4-dimethyl-2-oxo-N-(2,4,6-trifluorobenzyl)-1,2,3,4-tetrahydroquinazoline-7-carboxamide] belongs less than 1000 nM; to `Cc1ccc(CN2C(=O)N(C)[C@@H](C)c3ccc(C(=O)NCc4c(F)cc(F)cc4F)cc32)c(F)c1` [Example 170, (S)-1-(2-fluoro-4-methylbenzyl)-3,4-dimethyl-2-oxo-N-(2,4,6-trifluorobenzyl)-1,2,3,4-tetrahydroquinazoline-7-carboxamide], less than 1000 nM.
With `C[C@@H]1c2ccc(C(=O)NCc3c(F)cc(F)cc3F)cc2N(Cc2c(O)cccc2F)C(=O)N1C` [Example 172, (R)-1-(2-fluoro-6-hydroxybenzyl)-3,4-dimethyl-2-oxo-N-(2,4,6-trifluorobenzyl)-1,2,3,4-tetrahydroquinazoline-7-carboxamide], the EC50 lay within 1000 to 10000 nM.
Consider `CC1c2ccc(C(=O)NCc3c(F)cc(F)cc3F)cc2N(Cc2c(N)cccc2F)C(=O)N1C` (centres unmarked) [Example 173, 1-(2-amino-6-fluorobenzyl)-3,4-dimethyl-2-oxo-N-(2,4,6-trifluorobenzyl)-1,2,3,4-tetrahydroquinazoline-7-carboxamide], for which the EC50 is less than 1000 nM.
The figure for `CC1c2ccc(C(=O)NCc3c(F)cc(F)cc3F)cc2N(Cc2ccc(O)cc2F)C(=O)N1C` (centres unmarked) [Example 181, 1-(2-fluoro-4-hydroxybenzyl)-3,4-dimethyl-2-oxo-N-(2,4,6-trifluorobenzyl)-1,2,3,4-tetrahydroquinazoline-7-carboxamide] is less than 1000 nM.
To `C[C@H]1c2ccc(C(=O)NCc3c(F)cc(F)cc3F)cc2N(Cc2c(F)ccc(C(N)=O)c2Cl)C(=O)N1C` [Example 186, (S)-1-(3-carbamoyl-2-chloro-6-fluorobenzyl)-3,4-dimethyl-2-oxo-N-(2,4,6-trifluorobenzyl)-1,2,3,4-tetrahydroquinazoline-7-carboxamide] belongs less than 1000 nM.
To `CC1NC(=O)N(Cc2c(F)cccc2Cl)c2cc(C(=O)NCc3c(F)cc(F)cc3F)ccc21` (centres unmarked) [Example 189, 1-(2-chloro-6-fluorobenzyl)-4-methyl-2-oxo-N-(2,4,6-trifluorobenzyl)-1,2,3,4-tetrahydroquinazoline-7-carboxamide] belongs 1000 to 10000 nM; to `CC1c2ccc(C(=O)NCc3c(F)cc(F)cc3F)cc2N(Cc2ccccc2)C(=O)N1C` (centres unmarked) [Example 190, 1-benzyl-3,4-dimethyl-2-oxo-N-(2,4,6-trifluorobenzyl)-1,2,3,4-tetrahydroquinazoline-7-carboxamide], less than 1000 nM.
